Numbers after ± are expanded uncertainties.
Key:
[1] = 298.15 K; 101.33 kPa; Liquid; Vibrating tube method
[2] = refractive index (Na D-line) (dimensionless); details: 298.15 K; 101.33 kPa; Liquid; Standard Abbe refractometry

Structure (SMILES)	mass density [1] [kg/m3]	refractive index [2]
CCCC[n+]1ccc(C)cc1.N#CC(=C=[N-])C#N [1-butyl-4-methylpyridinium tricyanomethanide]	1036.68 ± 1.3	
c1ccncc1 [pyridine]	982.85 ± 1	1.5094 ± 0.00072
CC(C)=O [acetone]	785.23 ± 1	1.356 ± 0.0007

Now from value to compound, other results behind:

mass density [1] [kg/m3]	Structure (SMILES)	refractive index [2]
679.48 ± 1	CCCCCCC [heptane]	1.38519 ± 0.00073
799.52 ± 1	CCCO [propan-1-ol]	1.38375 ± 0.00072

— the NIST ThermoML archive (doi:10.1016/j.fluid.2015.03.027)
